Results reported in patent US5541310A, “Herbicide resistant plants” (Ciba-Geigy Corporation, priority 1994, dated 1996).

Legend:
[1] = test system: Leaf disks of transgenic Nicotiana tabacum lines IGPD-C, E, and G; test: Leaf disk growth (weight) on MS agar containing IGPD inhibitor, transgenic lines versus wild type; assay type: in vivo, Nicotiana tabacum cv. Xanthi-nc; settings: 30 ppm inhibitor on MS agar, after three weeks
Text: Leaf disks of Nicotiana tabacum cv. Xanthi-nc were infected with A. tumefaciens CIB542 harboring pCIB200IGPD as described by Horsch et al, Science 227:1229 (1985). Kanamycin-resistant shoots from 15 independent leaf disks were transferred to rooting medium, then transplanted to soil and the resulting plants grown to maturity in the greenhouse. Seed from these plants were collected and germinated on MS agar medium containing kanamycin. Ten individual kanamycin resistant seedlings from each independent primary transformant were grown to maturity in the greenhouse, and their seed collected. These seeds were germinated on MS agar medium conta/ning kanamycin.
Plant lines that gave rise to exclusively kanamycin resistant seedlings were homozygous for the inserted gene and were subjected to further analysis. Leaf disks of each of the 15 independent transgenie lines were excised with a paper punch and placed onto MS agar containing 0 or 30 ppm of a specific IGPD inhibitor represented by formula (II), namely: [drawing 11] After three weeks, two sets of 10 disks from each line were weighed, and the results recorded. Transgenie lines designated IGPD-C, E, and G were approximately 3-fold more resistant to the inhibitor than wild type, non-transformed plants.

[2] = test system: IGPD-G (IGPD-overexpressing line); test: Greenhouse plants treated with inhibitor, health visually scored; assay type: in vivo, Nicotiana tabacum cv. Xanthi-nc; design: key: 1 = severe stunting, severe chlorosis combined with necrosis; 2 = severe stunting, some interveinal chlorosis; 3 = moderate stunting, some interveinal chlorosis, pinnate leaves; 4 = moderate stunting, normal leaf morphology; 5 = healthy, with no symptoms
Protocol: (§1) To further evaluate resistance of the IGPD-overexpressing line IGPD-G, plants were grown in the greenhouse and treated with various concentrations of the inhibitor IRL 1803. After treatment, plants were photographed, and their health was visually scored.

Xanthi (untransformed) = test: as above; assay type: in vivo, Nicotiana tabacum cv. Xanthi-nc; design: key: 1 = severe stunting, severe chlorosis combined with necrosis; 2 = severe stunting, some interveinal chlorosis; 3 = moderate stunting, some interveinal chlorosis, pinnate leaves; 4 = moderate stunting, normal leaf morphology; 5 = healthy, with no symptoms
Protocol: as §1

wheat germ IGPD = test: IGPD enzyme activity / inhibitor assay with purified wheat germ IGPD; assay type: biochemical
Protocol: Purified IGPD may be used in assays to discover novel inhibitors of the enzyme, which inhibitors potentially would function as commercially viable herbicides. Typically, the inhibitory effect of a chemical on IGPD is determined by the absorbance difference at 370 nm using an absorbance coefficient of 10,400, which signifies the production of IAP from IGP. See, Ames et al., J. Biol. Chem. 212:687-697 (1957). Inhibitor solutions in various concentrations, e.g. 1 mM, 100 μM, 10 μM, and 1 μM, are added to the reaction mixture prior to the initiation of the enzyme reaction. A representative reaction mixture contains 50 mM Bis-Tris-propane-HCl (pH 6.6), 100 mM 2-mercaptoethanol, 1 mM MnCl2, 1 mM IGP, and between 2 and 5 mU of IGPD. Once IGP is added, the reaction is rim at 30° C., and is stopped by the addition of perchlorie acid up to 10% volume of the reaction mixture. […] Five volumes of 5N NaOH are added to the solution, and after two minutes, enolized IA is measured spectroscopically. […]
IGPD activity was determined by measuring imidazoleacetol obtained by hydrolyzing IAP. […] Five volumes of 5N NaOH were added to the solution, and after 2 minutes, the concentration of enolized imidazoleacetol was determined from the absorbance at 370 nm using the absorbance coefficient of 10,400 (Ames and Mitchell, 1955). […]

O=P(O)(O)C1CCCC(O)(c2ncn[nH]2)C1 (stereo not shown)
resistance to the inhibitor relative to wild type, non-transformed plants (leaf disk weight) [1]: approximately 3 fold

O=P(O)(O)[C@@H]1CCC[C@](O)(c2ncn[nH]2)C1 [IRL 1803]
Visual Score after Treatment ([2]; 1000 ppm): 4 | Visual Score after Treatment ([2]; 10000 ppm): 2 | Visual Score after Treatment (Xanthi (untransformed); 1000 ppm): 3 | Visual Score after Treatment (Xanthi (untransformed); 10000 ppm): 1

[Mn+2] [manganese ions]
enhancement of the activity of the enzyme (wheat germ IGPD; manganese ions at a concentration of 0.5 mM): 7 fold | Km (wheat germ IGPD; read-out: Km value for Mn2+): ~110 µM
